Source: US9085572B2, “4-(pyridin-3-yl)-2(pyridin-2yl)-1,2-dihydro-3H-pyrazol-3-one derivatives as specific HIF-pyrolyl-4-hydroxylase inhibitors for treating cardiovascular and haematological diseases” (Bayer Intellectual Property GmbH, priority 2005, dated 2015)
Where a name gives a salt, the structure may show the parent alone.

Assays:
HIF prolyl hydroxylase = assay: Inhibition of the activity of HIF prolyl hydroxylase (VBC complex binding to hydroxylated peptide substrate); type: biochemical; conditions: cell lysate containing prolyl hydroxylase, biotin-DLDLEMLAPYIPMDDDFQL peptide substrate
Protocol: Hydroxylated HIF bonds specifically to the von Hippel-Lindau protein-elongin B-elongin C complex (VBC complex). This interaction occurs only if HIF is hydroxylated on a conserved prolyl radical. It is the basis for the biochemical determination of HIF prolyl hydroxylase activity. The test is carried out as described [Oehme F., Jonghaus W., Narouz-Ott L., Huetter J., Flamme I., Anal. Biochem. 330 (1), 74-80 (2004)]:
A clear 96-well microtiter plate coated with NeutrAvidin HBC (Pierce) is incubated with blocker casein for 30 minutes. The plate is then washed three times with 200 μl each time of wash buffer (50 mM Tris, pH 7.5, 100 mM NaCl, 10% (v/v) blocker casein, 0.05% (v/v) Tween 20) per well. The peptide biotin-DLDLEMLAPYIPMDDDFQL (Eurogentec, 4102 Seraing, Belgium) is added in a concentration of 400 nM in 100 μl wash buffer. This peptide serves as a substrate for the prolyl hydroxylation and is bonded to the microtiter plate. After incubation for 30 minutes, the plate is washed three times with wash buffer, incubated with 1 mM biotin in blocker casein for 30 minutes and then washed again three times with wash buffer.
To carry out the prolyl hydroxylase reaction, the peptide substrate bonded to the plate is incubated with a cell lysate containing prolyl hydroxylase for 1 to 60 minutes. The reaction takes place in 100 μl reaction buffer (20 mM Tris, pH 7.5, 5 mM KCl, 1.5 mM MgCl2, 1 μM-1 mM 2-oxoglutarate, 10 μM FeSO4, 2 mM ascorbate) at room temperature. The reaction mixture moreover contains various concentrations of the prolyl hydroxylase inhibitor to be tested. The test substance is preferably, but not exclusively, employed at concentrations of between 1 nM and 100 μM. The reaction is stopped by washing the plate three times with wash buffer.
For quantitative determination of the prolyl hydroxylation, a fusion protein which contains both thioredoxin from E. coli and the VBC complex is added in 80 μl bonding buffer (50 mM Tris, pH 7.5, 120 mM NaCl). After 15 minutes, 10 μl of a solution of polyclonal anti-thioredoxin antibodies from rabbit in bonding buffer are added. After a further 30 minutes, 10 μl of a solution of anti-rabbit immunoglobulin coupled to horseradish peroxidase in bonding buffer are added. After incubation at room temperature for 30 minutes, the plate is washed three times with wash buffer in order to remove non-bonded VBC complex and antibodies. To determine the amount of bonded VBC complex, the plate is incubated with TMB for 15 minutes. The color reaction is ended by addition of 100 μl 1 M sulfuric acid. The amount of bonded VBC complex is determined by measurement of the optical density at 450 nm. It is proportional to the amount of hydroxylated proline in the peptide substrate.
Alternatively, a VBC complex coupled to europium (Perkin Elmer) can be used for detection of the prolyl hydroxylation. In this case, the amount of bonded VBC complex is determined by the fluorescence with respect to time. The use of VBC complex labeled with [^35S]-methionine is moreover possible. For this, the radioactively labeled VBC complex can be prepared by in vitro transcription-translation in reticulocyte lysate.

[1] = test system: recombinant A549 cell line with HRE-controlled luciferase reporter; assay: Cellular, functional in vitro test: luciferase reporter under hypoxia-responsible elements in recombinant A549 cell line; type: cell-based; conditions: Homo sapiens, luciferase light signal six to 24 hours after addition of test substance
From the text: The activity of the compounds according to the invention is quantified with the aid of a recombinant cell line. The cell is originally derived from a human lung carcinoma cell line (A549, ATCC: American Type Culture Collection, Manassas, Va. 20108, USA). The test cell line is transfected in a stable manner with a vector which contains the reporter gene of Photinus pyralis luciferase (called luciferase in the following) under the control of an artificial minimal promoter. The minimal promoter comprises two hypoxia-responsible elements upstream of a TATA box [Oehme F., Ellinghaus P., Kolkhof P., Smith T. J., Ramakrishnan S., Hütter J., Schramm M., Flamme I., Biochem. Biophys. Res. Commun. 296 (2), 343-9 (2002)]. Under the effect of hypoxia (e.g. culturing in the presence of 1% oxygen for 24 hours) or under the action of non-selective dioxygenase inhibitors (e.g. desferroxamine in a concentration of 100 μM, cobalt chloride in a concentration of 100 μM or N-oxalylglycine diethyl ester in a concentration of 1 mM), the test cell line produces luciferase, which can be detected and quantified with the aid of suitable bioluminescence reagents (e.g. Steady-Glo® Luciferase Assay System, Promega Corporation, Madison, Wis. 53711, USA) and a suitable luminometer.
Test Procedure: On the day before the test, the cells are plated out in an exactly calculated amount of culture medium (DMEM, 10% FCS, 2 mM glutamine) in 384- or 1,536-well microtiter plates and kept in a cell incubator (96% atmospheric humidity, 5% v/v CO2, 37° C.). On the test day, the test substances are added to the culture medium in graduated concentrations. No test substance is added to the cells in batches serving as negative controls. As a positive control for determination of the sensitivity of the cell to inhibitors, desferroxamine e.g. is added in a final concentration of 100 μM. Six to 24 hours after transfer of the test substances into the wells of the microtiter plate, the resulting light signal is measured in the luminometer. A dose/effect relationship is plotted with the aid of the measurement values, which serves as the basis for determining the half-maximum active concentration (call the EC50 value in the following).

| SMILES | IC50 (HIF prolyl hydroxylase) | EC50 [1] |
| --- | --- | --- |
| O=c1c(-c2cccnc2)c[nH]n1-c1ccccn1 [Example 6, 2-Pyridin-2-yl-4-pyridin-3-yl-1,2-dihydro-3H-pyrazol-3-one] | 0.43 µM | 4.9 µM |
| O=c1c(-c2cccnc2)c[nH]n1-c1ccc(CO)cn1 [Example 23, 2-(5-Hydroxymethyl-pyridin-2-yl)-4-pyridin-3-yl-1,2-dihydro-3H-pyrazol-3-one hydrochloride] | 0.86 µM | 13.4 µM |
| Cc1ncccc1-c1c[nH]n(-c2ccccn2)c1=O [Example 26] | 0.76 µM | 6 µM |
| Cc1ccnc(-n2[nH]cc(-c3ccc(C#N)nc3)c2=O)c1 [Example 34, 4-(6-Cyanopyridin-3-yl)-2-(4-methylpyridin-2-yl)-1,2-dihydro-3H-pyrazol-3-one hydrochloride] | 0.18 µM | 4.7 µM |
| NCc1ccnc(-n2[nH]cc(-c3cccnc3)c2=O)c1 [Example 35, 2-[4-(Aminomethyl)pyridin-2-yl]-4-pyridin-3-yl-1,2-dihydro-3H-pyrazol-3-one dihydrochloride] | 2.3 µM | 17.2 µM |
| O=c1c(-c2cccnc2)c[nH]n1-c1cc(CO)ccn1 [Example 43, 2-[4-(Hydroxymethyl)pyridin-2-yl]-4-pyridin-3-yl-1,2-dihydro-3H-pyrazol-3-one hydrochloride] | 1.5 µM | 7.6 µM |
| O=C(Cc1ccccc1)NCc1ccnc(-n2[nH]cc(-c3cccnc3)c2=O)c1 [Example 46, N-{[2-(5-Oxo-4-pyridin-3-yl-2,5-dihydro-1H-pyrazol-1-yl)pyridin-4-yl]methyl}-2-phenylacetamide hydrochloride] | 0.7 µM | 7.4 µM |
| CC(=O)NCc1ccnc(-n2[nH]cc(-c3cccnc3)c2=O)c1 [Example 47, N-{[2-(5-Oxo-4-pyridin-3-yl-2,5-dihydro-1H-pyrazol-1-yl)pyridin-4-yl]methyl}acetamide hydrochloride] | 2.2 µM | 12.4 µM |
| O=C(NCc1ccnc(-n2[nH]cc(-c3cccnc3)c2=O)c1)c1ccccc1 [Example 48, N-{[2-(5-Oxo-4-pyridin-3-yl-2,5-dihydro-1H-pyrazol-1-yl)pyridin-4-yl]methyl}benzamide hydrochloride] | 1.9 µM | 18.9 µM |
| O=C(CCn1cc(Cl)cn1)NCc1ccnc(-n2[nH]cc(-c3cccnc3)c2=O)c1 [Example 50, 3-(4-Chloro-1H-pyrazol-1-yl)-N-{[2-(5-oxo-4-pyridin-3-yl-2,5-dihydro-1H-pyrazol-1-yl)pyridin-4-yl]methyl}propanamide] | 1.9 µM | 7.1 µM |
